Data as given in US7932270B2 (Cytokinetics, Inc., priority 2006, dated 2011).

Target: T1, chicken gizzard smooth muscle myosin subfragment-1 chemically crosslinked to cardiac or skeletal actin (Gallus gallus, UniProt P10587)
T1 construct: chicken gizzard smooth muscle myosin subfragment-1; from tissue; host or cells: chicken gizzard
Assay: Smooth muscle myosin ATPase dose response assay (pyruvate kinase/horseradish peroxidase/pyruvate oxidase-coupled, amplex red fluorescence)
Assay type: biochemical
Settings: read-out: IC50 Arithmetic Mean
Procedure: In Vitro Model of Dose Dependent Smooth Muscle Myosin ATPase Modulation
Screening assays were performed using a pyruvate kinase and lactate dehydrogenase-coupled ATPase assay containing the following reagents: Potassium PIPES (50 mM), MgCl2 (3 mM), KCl (100 mM), ATP (0.15 mM), DTT (1 mM), BSA (0.1 mg/ml), NADH (0.5 mM), PEP (1.5 mM), pyruvate kinase (4 U/ml), lactate dehydrogenase (8 U/ml), and antifoam (50 ppm) (concentrations expressed are final assay concentrations). The pH was adjusted to 6.80 at 22° C. by addition of potassium hydroxide. Lead optimization assays were performed with a more sensitive pyruvate kinase/horseradish peroxidase/pyruvate oxidase-coupled ATPase assay containing the following reagents: Potassium PIPES (12 mM), MgCl2 (2 mM), KCl (100 mM), ATP (0.15 mM), BSA (0.05 mg/ml), potassium phosphate (2 mM), amplex red (0.1 mM), PEP (0.1 mM), pyruvate kinase (4 U/ml), horseradish peroxidase (0.5 U/ml), pyruvate oxidase (0.5 U/ml), and antifoam (50 ppm) (concentrations expressed are final assay concentrations). The pH was adjusted to 7.00 at 22° C. by addition of potassium hydroxide.
The protein components specific to this assay are chicken gizzard smooth muscle myosin subfragment-1 that has been chemically crosslinked to either cardiac or skeletal actin using an excess of 1-Ethyl-3-[3-dimethylaminopropyl]carbodiimide hydrochloride and N-hydroxysuccinimide. The exact concentration of the crosslinked smooth muscle myosin in the assay is determined empirically, by titration to achieve a desired rate of ATP hydrolysis. The concentration varies between protein preparations due to variations in the fraction of active molecules in each preparation.
Compound dose response assays are performed by first preparing a dilution series of test compound, each with an assay mixture containing potassium PIPES, MgCl2, KCl, ATP, BSA, potassium phosphate, amplex red, PEP, crosslinked smooth muscle actomyosin (subfragment-1), antifoam, and water. The assay is started by adding an equal volume of solution containing potassium Pipes, MgCl2, KCl, BSA, potassium phosphate, pyruvate kinase, horseradish peroxidase, pyruvate oxidase, antifoam, and water. ATP hydrolysis is monitored by measuring the fluorescence of amplex red (excitation at 480 nm, emission at 615 nm). The resulting dose response curve is fit by the 4 parameter equation y=Bottom+((Top-Bottom)/(1+((IC50/X)^Hill))). The IC50 is defined as the concentration at which ATPase activity is midway between the top and bottom of the dose response curve.

T1 sequence (P02607 2-151): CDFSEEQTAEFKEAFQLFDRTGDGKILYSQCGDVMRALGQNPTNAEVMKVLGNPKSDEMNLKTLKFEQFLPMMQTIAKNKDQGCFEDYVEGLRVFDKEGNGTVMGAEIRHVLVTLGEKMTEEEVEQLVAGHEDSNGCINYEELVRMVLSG
T1 sequence (P10587 84-789): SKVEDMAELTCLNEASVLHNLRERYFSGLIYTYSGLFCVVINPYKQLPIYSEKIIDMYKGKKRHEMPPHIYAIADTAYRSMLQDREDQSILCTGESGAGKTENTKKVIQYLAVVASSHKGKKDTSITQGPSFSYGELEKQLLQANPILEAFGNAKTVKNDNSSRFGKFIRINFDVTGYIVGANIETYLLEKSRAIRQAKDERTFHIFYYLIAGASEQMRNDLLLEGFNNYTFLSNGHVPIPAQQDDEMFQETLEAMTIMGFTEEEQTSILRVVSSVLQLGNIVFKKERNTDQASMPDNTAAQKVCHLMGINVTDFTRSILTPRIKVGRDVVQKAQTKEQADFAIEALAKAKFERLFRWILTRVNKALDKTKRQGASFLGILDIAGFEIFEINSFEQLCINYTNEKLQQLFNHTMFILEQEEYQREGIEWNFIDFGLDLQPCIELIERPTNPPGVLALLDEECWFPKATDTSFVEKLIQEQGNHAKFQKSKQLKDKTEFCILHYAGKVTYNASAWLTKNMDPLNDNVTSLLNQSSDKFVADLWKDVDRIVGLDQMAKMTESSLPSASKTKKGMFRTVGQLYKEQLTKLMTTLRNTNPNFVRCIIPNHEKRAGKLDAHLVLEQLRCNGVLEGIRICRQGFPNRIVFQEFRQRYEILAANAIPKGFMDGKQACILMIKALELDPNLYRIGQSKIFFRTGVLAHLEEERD

Row | IC50 [nM] | Compound
1 | 512 | O=C(NCc1cccnc1)c1ccc(-c2ccccc2)nc1NCCc1ccccn1 [{6-phenyl-2-[(2-(2-pyridyl)ethyl)amino](3-pyridyl)}-N-(3-pyridylmethyl)carboxamide]
2 | 45 | O=C(NCc1ccccn1)c1ccc(-c2ccc(CO)s2)nc1NCCc1cccc(F)c1 [(2-{[2-(3-fluorophenyl)ethyl]amino}-6-[5-(hydroxymethyl)(2-thienyl)](3-pyridyl))-N-(2-pyridylmethyl)carboxamide]
3 | 43 | CC(=O)N1CC[C@@H]1CNC(=O)c1ccc(-c2ccccc2C#N)nc1NCCc1cccc(F)c1 [N-[((2R)-1-acetylazetidin-2-yl)methyl](6-(2-cyanophenyl)-2-{[2-(3-fluorophenyl)ethyl]amino}(3-pyridyl))carboxamide]
4 | 17900 | N#Cc1ccccc1-c1ccc(C(=O)NCCN2C(=O)CC[C@H]2CN)c(NCCc2cccc(F)c2)n1 [N-{2-[(5S)-5-(aminomethyl)-2-oxopyrrolidinyl]ethyl}(6-(2-cyanophenyl)-2-{[2-(3-fluorophenyl)ethyl]amino}(3-pyridyl))carboxamide]
5 | 9760 | N#Cc1ccccc1-c1ccc(C(=O)NC[C@H](N)C(=O)O)c(NCCc2cccc(F)c2)n1 [(2S)-2-amino-3-[(6-(2-cyanophenyl)-2-{[2-(3-fluorophenyl)ethyl]amino}(3-pyridyl))carbonylamino]propanoic acid]
6 | 29 | N#Cc1ccccc1-c1ccc(C(=O)NC[C@H]2CCCN2C(=O)CCCN)c(NCCc2cccc(F)c2)n1 [N-{[(2R)-1-(4-aminobutanoyl)pyrrolidin-2-yl]methyl}(6-(2-cyanophenyl)-2-{[2-(3-fluorophenyl)ethyl]amino}(3-pyridyl))carboxamide]
7 | 2790 | O=C(NCc1cccnc1)c1ccc(-c2ccccc2)nc1NCc1ccccc1 [{6-phenyl-2-[benzylamino](3-pyridyl)}-N-(3-pyridylmethyl)carboxamide]
8 | 169 | NCCCC(=O)N1CCCC1CNC(=O)c1cc(F)c(-c2cc[nH]n2)nc1NCCc1cccc(F)c1 [N-{[(2R)-1-(4-aminobutanoyl)pyrrolidin-2-yl]methyl}(5-fluoro-2-{[2-(3-fluorophenyl)ethyl]amino}-6-pyrazol-3-yl(3-pyridyl))carboxamide]
9 | 1260 | N#Cc1ccccc1-c1ccc(C(=O)NC[C@@H]2CCCN(C(=O)CCN)C2)c(NCCc2cccc(F)c2)n1 [N-{[(3S)-1-(3-aminopropanoyl)(3-piperidyl)]methyl}(6-(2-cyanophenyl)-2-{[2-(3-fluorophenyl)ethyl]amino}(3-pyridyl))carboxamide]
10 | 65 | N#Cc1ccccc1-c1ccc(C(=O)NCc2cccnc2)c(NCCc2ccco2)n1 [{6-(2-cyanophenyl)-2-[(2-(2-furyl)ethyl)amino](3-pyridyl)}-N-(3-pyridylmethyl)carboxamide]
11 | 81 | N#Cc1ccccc1-c1ccc(C(=O)NCc2cncc(CO)c2)c(NCCc2cccc(F)c2)n1 [(6-(2-cyanophenyl)-2-{[2-(3-fluorophenyl)ethyl]amino}(3-pyridyl))-N-{[5-(hydroxymethyl)(3-pyridyl)]methyl}carboxamide]
12 | 65100 | CC(C)(C)OC(=O)N1CCOC(CNC(=O)c2ccc(-c3ccccc3)nc2NCCc2ccccn2)C1 (centres unmarked) [tert-butyl 2-[({6-phenyl-2-[(2-(2-pyridyl)ethyl)amino]-3-pyridyl}carbonylamino)methyl]morpholine-4-carboxylate]
13 | 26 | N#Cc1ccccc1-c1ccc(C(=O)NCc2cnccn2)c(NCCc2cccc(F)c2)n1 [(6-(2-cyanophenyl)-2-{[2-(3-fluorophenyl)ethyl]amino}(3-pyridyl))-N-(pyrazin-2-ylmethyl)carboxamide]
14 | 340 | CNC(=O)CCNC(=O)c1ccc(-c2ccccc2C#N)nc1NCCc1cccc(F)c1 [3-[(6-(2-cyanophenyl)-2-{[2-(3-fluorophenyl)ethyl]amino}(3-pyridyl))carbonylamino]-N-methylpropanamide]
